ChEMBL document CHEMBL5226276, “Molecules with versatile biological activities bearing antipyrinyl nucleus as pharmacophore” (Eur J Med Chem, 2020)
≈ marks a conversion by molar mass, not a printed value.

How the values were obtained:
[1] = Antioxidant activity assessed as DPPH radical scavenging activity incubated for 30 mins under dark condition; format: functional
[2] = Toxicity in brine shrimp assessed as lethal dose incubated for 24 hrs; conditions: artemia salina
Salmonella typhimurium = assay: Antibacterial activity against Salmonella enterica subsp. enterica serovar Typhimurium assessed as inhibition of bacterial growth incubated for 24 hrs by filter paper disc diffusion assay; format: functional
Bacillus cereus = assay: Antibacterial activity against Bacillus cereus assessed as inhibition of bacterial growth incubated for 24 hrs by filter paper disc diffusion assay; format: functional
[3] = tested on: Mycobacterium tuberculosis; assay: Antimycobacterial activity against Mycobacterium tuberculosis H37Rv assessed as inhibition of bacterial growth at 1.56 to 100 ug/ml incubated for 6 days by alamar blue dye based broth microdilution assay; format: functional; conditions: dose 1.56-100 µg/ml; time 6 day; at 1.56 to 100 µg/mL
Aspergillus niger = assay: Antimicrobial activity against Aspergillus niger assessed as inhibition of microbial growth incubated for 48 hrs by well dilution assay based UV-Vis spectroscopy; format: functional
Aspergillus flavus = assay: Antimicrobial activity against Aspergillus flavus assessed as inhibition of microbial growth incubated for 48 hrs by well dilution assay based UV-Vis spectroscopy; format: functional
Candida albicans = assay: Antimicrobial activity against Candida albicans assessed as inhibition of microbial growth incubated for 48 hrs by well dilution assay based UV-Vis spectroscopy; format: functional
Proteus vulgaris = assay: Antimicrobial activity against Proteus vulgaris assessed as inhibition of microbial growth incubated for 24 hrs by well dilution assay based UV-Vis spectroscopy; format: functional
Staphylococcus aureus = assay: Antimicrobial activity against Staphylococcus aureus assessed as inhibition of microbial growth incubated for 24 hrs by well dilution assay based UV-Vis spectroscopy; format: functional
Escherichia coli = assay: Antimicrobial activity against Escherichia coli assessed as inhibition of microbial growth incubated for 24 hrs by well dilution assay based UV-Vis spectroscopy; format: functional
Rhizopus stolonifer = assay: Antimicrobial activity against Rhizopus stolonifer assessed as inhibition of microbial growth incubated for 48 hrs by well dilution assay based UV-Vis spectroscopy; format: functional
Klebsiella pneumoniae = assay: Antimicrobial activity against Klebsiella pneumoniae assessed as inhibition of microbial growth incubated for 24 hrs by well dilution assay based UV-Vis spectroscopy; format: functional
Pseudomonas aeruginosa = assay: Antimicrobial activity against Pseudomonas aeruginosa assessed as inhibition of microbial growth incubated for 24 hrs by well dilution assay based UV-Vis spectroscopy; format: functional
Macrophomina phaseolina = assay: Antimicrobial activity against Macrophomina phaseolina assessed as inhibition of microbial growth incubated for 48 hrs by well dilution assay based UV-Vis spectroscopy; format: functional
[4] = tested on: Mycobacterium tuberculosis; assay: Antimycobacterial activity against Mycobacterium tuberculosis H37Rv assessed as inhibition of bacterial growth incubated for 6 days by alamar blue dye based broth microdilution assay; format: functional; conditions: time 6 day
[5] = Antioxidant activity assessed as DPPH radical scavenging activity by spectrophotometric assay; format: functional
[6] = Antioxidant activity assessed as DPPH radical scavenging activity; format: functional
[7] = Antioxidant activity assessed as DPPH radical scavenging activity incubated for 30 mins under dark condition by spectrophotometric assay; format: functional

Cc1c(/N=C/c2ccccc2)c(=O)n(-c2ccccc2)n1C
IC50 [1]: 31.3 µM

Cc1c(/N=C/c2ccc(Cl)cc2)c(=O)n(-c2ccccc2)n1C
LC50 [2]: 225 ppm

Cc1c(/N=C/c2ccc(O)c(O)c2)c(=O)n(-c2ccccc2)n1C
LC50 [2]: 481 ppm

Cc1c(/N=C/c2ccc(O)cc2O)c(=O)n(-c2ccccc2)n1C
LC50 [2]: 581 ppm

COc1ccccc1/C=N/c1c(C)n(C)n(-c2ccccc2)c1=O
MIC (Salmonella typhimurium): 50 µg/mL (≈ 156 µM) | MIC (Bacillus cereus): 12.5 µg/mL (≈ 38.9 µM)

COc1cccc(-c2csc(N/N=c3\c(/N=C/c4ccccc4)c(C)n(C)n3-c3ccccc3)n2)c1
inhibition (INH) [3]: 90%

Cc1c(/N=C/c2ccccc2)/c(=N\Nc2nc(-c3ccccc3)cs2)n(-c2ccccc2)n1C
inhibition (INH) [3]: 90%

Cc1c(/N=C/c2ccco2)/c(=N\c2ccccc2)n(-c2ccccc2)n1C
MIC (Aspergillus niger): 6 µg/mL | MIC (Aspergillus flavus): 6 µg/mL | MIC (Candida albicans): 6 µg/mL | MIC (Proteus vulgaris): 16 µg/mL | MIC (Staphylococcus aureus): 16 µg/mL | MIC (Escherichia coli): 16 µg/mL | MIC (Rhizopus stolonifer): 6 µg/mL | MIC (Klebsiella pneumoniae): 16 µg/mL | MIC (Pseudomonas aeruginosa): 16 µg/mL | MIC (Macrophomina phaseolina): 6 µg/mL

Cc1c(/N=C/c2ccc(Cl)cc2)/c(=N\Nc2nc(-c3ccccc3)cs2)n(-c2ccccc2)n1C
inhibition (INH) [3]: 90%

Cc1c(/N=C/c2ccc(O)cc2)/c(=N\Nc2nc(-c3ccccc3)cs2)n(-c2ccccc2)n1C
inhibition (INH) [3]: 90%

Cc1c(/N=C/c2ccccc2)/c(=N\Nc2nc(-c3ccc(O)c(O)c3)cs2)n(-c2ccccc2)n1C
inhibition (INH) [3]: 90%

Cc1c(/N=C/c2ccco2)/c(=N\c2ccc([N+](=O)[O-])cc2)n(-c2ccccc2)n1C
MIC (Aspergillus niger): 6 µg/mL | MIC (Aspergillus flavus): 6 µg/mL | MIC (Candida albicans): 6 µg/mL | MIC (Proteus vulgaris): 16 µg/mL | MIC (Staphylococcus aureus): 16 µg/mL | MIC (Escherichia coli): 16 µg/mL | MIC (Rhizopus stolonifer): 6 µg/mL | MIC (Klebsiella pneumoniae): 16 µg/mL | MIC (Pseudomonas aeruginosa): 16 µg/mL | MIC (Macrophomina phaseolina): 6 µg/mL

COc1cc(-c2csc(N/N=c3\c(/N=C/c4ccccc4)c(C)n(C)n3-c3ccccc3)n2)ccc1O
inhibition (INH) [3]: 90%

Cc1c(/N=C/c2ccccc2)/c(=N\Nc2nc(-c3ccc([N+](=O)[O-])cc3)cs2)n(-c2ccccc2)n1C
inhibition (INH) [3]: 90%

Cc1c(/N=C/c2cccc(F)c2)/c(=N\Nc2nc(-c3ccccc3)cs2)n(-c2ccccc2)n1C
inhibition (INH) [3]: 90%

Cc1c(/N=C/c2cccc(Cl)c2)/c(=N\Nc2nc(-c3ccccc3)cs2)n(-c2ccccc2)n1C
inhibition (INH) [3]: 90%

Cc1c(/N=C/c2ccccc2Cl)/c(=N\Nc2nc(-c3ccccc3)cs2)n(-c2ccccc2)n1C
inhibition (INH) [3]: 90%

Cc1c(/N=C/c2ccccc2)/c(=N\Nc2nc(-c3ccc(O)cc3O)cs2)n(-c2ccccc2)n1C
inhibition (INH) [3]: 90% | MIC [4]: 0.648 10^-3micromol/ml

COc1ccccc1/N=N/c1ccc(O)c2ncccc12
IC50 [5]: 72 µg/mL (≈ 258 µM)

Cc1c(/N=C/c2ccccc2)/c(=N\Nc2nc(-c3ccc(N(C)C)cc3)cs2)n(-c2ccccc2)n1C
inhibition (INH) [3]: 90%

Cc1c(/N=C/c2ccco2)/c(=N\c2ccc(O)cc2)n(-c2ccccc2)n1C
MIC (Aspergillus niger): 6 µg/mL | MIC (Aspergillus flavus): 6 µg/mL | MIC (Candida albicans): 6 µg/mL | MIC (Proteus vulgaris): 16 µg/mL | MIC (Staphylococcus aureus): 16 µg/mL | MIC (Escherichia coli): 16 µg/mL | MIC (Rhizopus stolonifer): 6 µg/mL | MIC (Klebsiella pneumoniae): 16 µg/mL | MIC (Pseudomonas aeruginosa): 16 µg/mL | MIC (Macrophomina phaseolina): 6 µg/mL

Cc1cc(C(C)(C)C)c(O)c(C(C)(C)C)c1 [BUTYLATED HYDROXYTOLUENE]
IC50 [6]: 32 µg/mL (≈ 145 µM) | IC50 [7]: 32 µg/mL (≈ 145 µM) | IC50 [5]: 31 µg/mL (≈ 141 µM)

O=C(O)c1cc(O)c(O)c(O)c1 [GALLIC ACID]
LC50 [2]: 78 ppm
